Measured values from US20100015128A1, “GRP78 as a Predictor of Responsiveness to Therapeutic Agents” (UNIVERSITY OF SOUTHERN CALIFORNIA, priority 2006, published 2010).

Experiments:
[1] = test system: BIK; assay: BIK protein induction under stress conditions (Western blot); assay type: cell-based, human; details: human cells
Excerpt: Cell lines and culture conditions. The estrogen-dependent cell line MCF-7/BUS was provided by A. M. Soto (Tufts University, Medford, Mass.) and has been described (Soto et al., Environ. Health Perspect. 103:113-22 (1995)). The human embryonic kidney 293T cells and MCF-7/BUS cells were maintained in DMEM supplemented with 10% fetal bovine serum. Estrogen starvation of MCF-7/BUS cells was done as described (Hur et al., PNAS 101:2351-6 (2004)). Briefly, the cells were washed thrice with phenol red-free DMEM and incubated in washing medium at 37° C. for 60 minutes. The MCF-7/BUS cells were then cultured in phenol red-free DMEM supplemented with 5% charcoal/dextran-stripped fetal bovine serum for 24 to 72 hours as indicated. For etoposide treatment, the cells were incubated with 50 μmol/L etoposide for 6 hours and cultured for another 24 hours before harvest.
Western blots and quantitation. The Western blots were done as described (Lee, Methods 35:373-81 (2005)). The primary antibodies were goat anti-BIK (N-19, Santa Cruz Biotechnology, Santa Cruz, Calif.), rat anti-Grp78 (76-E6, Santa Cruz Biotechnology), rat anti-GRP94, rabbit anti-calnexin, rabbit anti-calreticulin (Stressgen, Ann Arbor, Mich.), mouse anti-Flag M2, mouse anti-poly(ADP-ribose) polymerase (PARP; F-2, Santa Cruz Biotechnology, Santa Cruz, Calif.), and mouse anti-h-actin (Sigma-Aldrich, St. Louis, Mo.). Anti-h-actin was diluted at 1:2,000; anti-BIK at 1:500; and other antibodies at 1:1,000. Respective horseradish peroxidase-conjugated secondary antibodies (Santa Cruz Biotechnology, Santa Cruz, Calif.) at 1:1,000 dilution were used. The Western blots were quantitated by Fluor-S® MultiImager (Bio-Rad, Hercules, Calif.) according to the manufacturer's instructions. All quantitations were normalized against h-actin.

[2] = test system: GRP78; assay: Western blot of GRP78 in SK-N-SH cells with H129 antibody; assay type: cell-based, human; details: 0.5 μM thapsigargin 16 hours
Protocol: FIGS. 11A, 11B and 11C show specific detection of GRP78 by H129 antibody. FIG. 11A is a Western blot assay. The human neuroblastoma SK-N-SH cells were either grown under normal conditions (−) or treated with 0.5 μM thapsigargin for 16 hours. Fifty μg of total cell lysate prepared from these cells were subjected to Western blot analysis, using the […] (1:1000 dilution). […] In FIG. 11B, Chinese hamster ovary (CHO) cells expressing basal level of GRP78 and its derivative C.1 cells overexpressing GRP78 were embedded in paraffin after fixation in formalin. The sections prepared from these blocks were stained with the immunohistochemical technique using the H129 antibody (1:100 dilution). GRP78 level, as depicted by brown staining, was elevated in C.1 cells as compared to CHO cells (600×). In FIG. 11C, paraffin slides from breast cancer patients were stained with the H129 antibody with the immunohistochemical technique. Examples of plasma cell staining from two different patients are shown.

C/C=C(/C)C(=O)O[C@H]1C(C)=C2[C@H]([C@@H]1OC(=O)CCCCCCC)[C@@](C)(OC(C)=O)C[C@H](OC(=O)CCC)[C@@]1(O)[C@H]2OC(=O)[C@@]1(C)O [thapsigargin]
induction of BIK by ER stress inducers [1]: do not induce | GRP78 protein band [2]: highly inducible
